This note sets out measurements from US20260200982A1, “HER RECEPTOR DERIVED PEPTIDES AND METHODS OF USE THEREOF” (Ramot at Tel-Aviv University Ltd., priority 2022, published 2026).

As a reminder, the pIC50 is −log10 of the IC50, conventionally taken in molar units.

pIC50: −log10 of the molar value. The star is where a group is joined. Myristoyl = CCCCCCCCCCCCCC(=O)*

In one assay the test system is Akt. Briefly: Western blot analysis of dissected Panc-1 tumors, Akt. The class given is in vivo, human. To be noted: Panc-1 tumor lysates; FIGS. 10A-C. How it is done:
Pancreatic Tumor Growth in Nude Mice—The study was conducted according to the NIH Guidelines for Use and Care of Laboratory Animals and following the approval by Animal Care Committee of the Tel Aviv University. Nude CD1-Nu mice (25-30 g) housed in barrier facilities on a 12-h light/dark cycle one week prior to the injection of tumor cells (day zero). On day zero, 2×10^6 Panc 1 cells in 0.1 ml of PBS were implanted subcutaneously just above the right femoral joint. Tumor size was measured every 3-4 days. When the tumors were apparently seen and the calculated tumor size was 40 mm^3, the animals were divided randomly into two groups of mice (control vehicle treated and myr-NLS (SEQ ID NO: 5) treated; 8 mice per group). Treatment with the myr-NLS (SEQ ID NO: 5) was performed by intraperitoneal injection of 25 μg in 100 μl PBS (or 100 μl PBS for control mice) every day. Tumors size was measured 3 times a week. At the end of the experiment, the mice were sacrificed, and the tumors were dissected and used for further analysis.
Western blot analysis—Half of each tumor was homogenized in lysis buffer, using a Potter-Elvehjem manual homogenizer, cleared and kept at −70° C. […] Immunoreactive bands were detected with the enhanced chemiluminescence reagent (Luminata Crescendo Western HRP). Densitometric quantification analysis of the resulted images was done using ImageJ program. […]
On the technique in general: Immunoblotting shows a protein as a band on a membrane.

For a further assay, the system named is Rat-1 fibroblast cells. Briefly: Methylene blue viability assay, Rat-1. The class given is cell-based. To be noted: FIG. 4C. The source says: (§1) Cell lines—Human breast cancer cell lines SKBR3 [Peles E et al. EMBO J. (1993) 12(3):961-71] and MCF7 [Faigenbloom L et al., Mol Syst Biol. (2015) 11(12):845] and human glioblastoma U87 [Goldberg L et al. Cancer Res. (2006) 66(24):11709-17] cell line, as well as Rat-1 fibroblast cells and H-Ras-transformed Rat-1 cells (EJ cells) [Marom M et al. J Biol Chem. (1995) 270(38):22263-70] and human Panc-1 and MIA PaCa-2 pancreatic cell lines (Rak R et al. Oncoscience. 2014 1(1):39-48; Weisz B et al. Oncogene (1999) 18, 2579±2588) were all grown in Dulbecco's modified Eagle's medium (DMEM; Biological Industries, Beithaemek, Israel). Human colorectal cancer cell lines DLD-1 (ATTC Cat No. CCL-221), HCT-116 (ATTC Cat No. CCL-247) and LNCaP prostate cancer cells were grown in Roswell Park Memorial Institute 1640 (RPMI 1640) medium and McCoy's 5A media, respectively (Sigma-Aldrich). All media were supplemented with antibiotics and 10% heat-inactivated fetal bovine serum (FBS; Gibco). Human breast cell line MCF10A [Bott A et al. Oncotarget. […]
(§2) Methylene blue viability assay—Cells were plated in 96-wells plates at cell densities of 1.5×10^3 (EJ, DLD-1), 3×10^3 (Rat-1, HCT-116, U87), 5×10^3 (SKBR3, MCF7) and 6×10^3 (MCF10A) cells/well. […] IC-50 values were calculated using a non-linear regression model (logarithmic inhibitor vs. normalized response-variable slope) with the GraphPad Prism 6 software.

In the next assay the test system is DLD-1 colon cancer cells. The class given is cell-based, human. The note with it: DLD-1; 72 hours; FIGS. 4B and 4C; read-out: IC50 (cell viability). The source says:
(§3) Cell lines—Human breast cancer cell lines SKBR3 [Peles E et al. EMBO J. (1993) 12(3):961-71] and MCF7 [Faigenbloom L et al., Mol Syst Biol. (2015) 11(12):845] and human glioblastoma U87 [Goldberg L et al. Cancer Res. (2006) 66(24):11709-17] cell line, as well as Rat-1 fibroblast cells and H-Ras-transformed Rat-1 cells (EJ cells) [Marom M et al. J Biol Chem. (1995) 270(38):22263-70] and human Panc-1 and MIA PaCa-2 pancreatic cell lines (Rak R et al. Oncoscience. 2014 1(1):39-48; Weisz B et al. Oncogene (1999) 18, 2579±2588) were all grown in Dulbecco's modified Eagle's medium (DMEM; Biological Industries, Beithaemek, Israel). Human colorectal cancer cell lines DLD-1 (ATTC Cat No. CCL-221), HCT-116 (ATTC Cat No. CCL-247) and LNCaP prostate cancer cells were grown in Roswell Park Memorial Institute 1640 (RPMI 1640) medium and McCoy's 5A media, respectively (Sigma-Aldrich). All media were supplemented with antibiotics and 10% heat-inactivated fetal bovine serum (FBS; Gibco). Human breast cell line MCF10A [Bott A et al. Oncotarget. (2017) 8(27):43897-43914] was grown in Dulbeco's Modified Eagle's Medium/Nutrient Mixture F-12 HAM medium (DMEM F-12 HAM; Sigma-Aldrich), supplemented with antibiotics, 5% inactivated horse serum (HS; Invitrogen), 2 mM L-glutamine (Biological Industries, Beithaemek, Israel), 0.1 μg/ml cholera toxin (Sigma-Aldrich), 0.5 μg/ml hydrocortisone (Sigma-Aldrich), 10 μg/ml insulin (Biological Industries, Beithaemek, Israel) and 2 ng/ml EGF (R&D Systems). Cells were incubated at 37° C. in 5% CO2 in air, and the medium was changed every 3-4 days. Cells were passaged in trypsin/disodium ethylenediaminetetraacetic acid (Biological Industries, Beithaemek, Israel) when confluency reached 70%. One day prior to treatment the cells were plated at ~50% confluency in a medium supplemented with 10% FBS or 5% HS, accordingly.
(§4) Methylene blue viability assay—Cells were plated in 96-wells plates at cell densities of 1.5×10^3 (EJ, DLD-1), 3×10^3 (Rat-1, HCT-116, U87), 5×10^3 (SKBR3, MCF7) and 6×10^3 (MCF10A) cells/well. On the following day, cells were treated as indicated, and grown for 72 hours. Cell number determination was performed as described previously. IC-50 values were calculated using a non-linear regression model (logarithmic inhibitor vs. normalized response-variable slope) with the GraphPad Prism 6 software.

Assay [1] deals with Panc-1 pancreatic cancer cells. It is filed as cell-based, human. The note with it: Panc 1; 72 hours; FIGS. 4B and 4C; read-out: IC50 (cell viability).
Description: as §3, §4

The subject of assay [2] is HCT-116 colon cancer cells. The class given is cell-based, human. The note with it: HCT116; 72 hours; FIGS. 4B and 4C; read-out: IC50 (cell viability).
Description: as §3, §4

Another assay deals with U87 glioma cells. It is filed as cell-based, human. To be noted: U87; 72 hours; FIGS. 4B and 4C; read-out: IC50 (cell viability).
Description: as §3, §4

The subject of a further assay is MCF7 breast cancer cells. It is filed as cell-based, human. To be noted: MCF7.
Description: as §3
(§5) Methylene blue viability assay—Cells were plated in 96-wells plates at cell densities of 1.5×10^3 (EJ, DLD-1), 3×10^3 (Rat-1, HCT-116, U87), 5×10^3 (SKBR3, MCF7) and 6×10^3 (MCF10A) cells/well. […] Cell number determination was performed as described previously. IC-50 values were calculated using a non-linear regression model (logarithmic inhibitor vs. normalized response-variable slope) with the GraphPad Prism 6 software.

In assay [3] the test system is SKBR3 breast cancer cells. It is filed as cell-based, human.
Description: as §3, §5

For assay [4], the system named is LNCaP prostate cancer cells. Briefly: Methylene blue viability assay, LNCaP. The note with it: 72 hours, FIGS. 4B and 4C, read-out: IC50 (cell viability). It is filed as cell-based, human.
Description: as §1, §2

Consider “Myr-RRRHIVRKRTLRRLL-OH (Myristoyl-RRRHIVRKRTLRRLL-OH; SMILES CCCCCCCCCCCCCC(=O)N[C@@H](CCCNC(=N)N)C(=O)N[C@@H](CCCNC(=N)N)C(=O)N[C@@H](CCCNC(=N)N)C(=O)N[C@@H](Cc1c[nH]cn1)C(=O)N[C@H](C(=O)N[C@H](C(=O)N[C@@H](CCCNC(=N)N)C(=O)N[C@@H](CCCCN)C(=O)N[C@@H](CCCNC(=N)N)C(=O)N[C@H](C(=O)N[C@@H](CC(C)C)C(=O)N[C@@H](CCCNC(=N)N)C(=O)N[C@@H](CCCNC(=N)N)C(=O)N[C@@H](CC(C)C)C(=O)N[C@@H](CC(C)C)C(=O)O)[C@@H](C)O)C(C)C)[C@@H](C)CC) [myr-NLS]”, for which the “Akt levels in tumors” value in the assay on Akt was “significant reduction”. In addition, the “viability of non-transformed Rat-1 cells” value in the assay with Rat-1 fibroblast cells is listed as “had no effect”. The pIC50 in the assay with DLD-1 colon cancer cells was 4.47; in assay [1] it was 5.09; in assay [2] it was 4.89; in the assay on U87 glioma cells, 4.49; in the assay with MCF7 breast cancer cells (72 hours, FIGS. 4B and 4C, read-out: IC50 (cell viability)), 4.63; in assay [3] (SKBR3, 72 hours, FIGS. 4B and 4C, read-out: IC50 (cell viability)), 4.69. In addition, the pIC50 in assay [4] is 5.12. The “effect on viability as compared to non-transformed MCF10 cells” value is listed as “much more pronounced” with MCF7 breast cancer cells (FIG. 4C) and “much more pronounced” in [3] (SKBR3, FIG. 4C). In addition, in assay [3] (80 μM peptide for 72 hours, FIG. 4A), the “viability of SKBR3 breast cancer cells” value is on record as “significantly reduced viability”.
